According to ChEMBL document CHEMBL1126588 (J Med Chem, 1993):
pKi: −log10 of the molar value. Where a SMILES comes first, the peptide text is derived from it. [ ]: non-standard residue; d: D form. Ahx = NCCCCCC(=O)O

Tests used:
[1] = biological target: T1, Neuropeptide Y receptor type 1 (Homo sapiens, UniProt P25929); assay: Tested against neuropeptide Y1 receptors using SK-N-MC human neuroblastoma cells; format: cell-based
T1 sequence (P25929 whole entry): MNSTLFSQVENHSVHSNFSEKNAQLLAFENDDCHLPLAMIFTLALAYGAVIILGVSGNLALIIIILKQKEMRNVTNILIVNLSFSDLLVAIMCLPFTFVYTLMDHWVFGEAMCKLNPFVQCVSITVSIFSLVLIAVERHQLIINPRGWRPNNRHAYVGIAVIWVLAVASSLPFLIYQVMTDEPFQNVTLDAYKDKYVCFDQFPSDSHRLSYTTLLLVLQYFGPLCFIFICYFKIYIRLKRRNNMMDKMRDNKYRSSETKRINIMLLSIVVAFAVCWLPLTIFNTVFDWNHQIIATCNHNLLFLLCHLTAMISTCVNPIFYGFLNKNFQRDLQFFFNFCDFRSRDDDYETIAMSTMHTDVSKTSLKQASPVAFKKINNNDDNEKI

[2] = biological target: T2, Neuropeptide Y receptor type 2 (Homo sapiens, UniProt P49146); assay: Tested against neuropeptide Y2 receptors using SK-N-BE2 human neuroblastoma cells
T2 sequence (P49146 whole entry): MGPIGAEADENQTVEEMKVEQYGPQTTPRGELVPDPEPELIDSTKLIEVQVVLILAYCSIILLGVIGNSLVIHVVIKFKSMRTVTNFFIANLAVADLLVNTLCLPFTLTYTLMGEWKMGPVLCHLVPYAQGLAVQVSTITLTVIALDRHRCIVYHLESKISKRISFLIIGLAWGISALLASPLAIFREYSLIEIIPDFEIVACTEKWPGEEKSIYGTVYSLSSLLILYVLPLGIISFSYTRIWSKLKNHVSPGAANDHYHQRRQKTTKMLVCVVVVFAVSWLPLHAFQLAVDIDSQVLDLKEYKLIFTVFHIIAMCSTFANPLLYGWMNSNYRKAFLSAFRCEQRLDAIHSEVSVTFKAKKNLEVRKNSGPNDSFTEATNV

| Compound | pKi ([1]; sk-n-mc) | pKi [2] | pKi [1] |
| --- | --- | --- | --- |
| CC[C@H](C)[C@H](NC(=O)[C@H](CC(C)C)NC(=O)[C@H](CC(N)=O)NC(=O)[C@@H](NC(=O)[C@H]1CNC(=O)CC[C@H](NC(=O)[C@@H](N)Cc2ccc(O)cc2)C(=O)N[C@@H](CO)C(=O)N[C@@H](CCCCN)C(=O)NCCCCCC(=O)N[C@@H](CCCN=C(N)N)C(=O)N[C@@H](Cc2c[nH]cn2)C(=O)N1)[C@@H](C)CC)C(=O)N[C@H](C(=O)N[C@@H](CCCN=C(N)N)C(=O)N[C@@H](CCC(N)=O)C(=O)N[C@@H](CCCN=C(N)N)C(=O)N[C@@H](Cc1ccc(O)cc1)C(N)=O)[C@@H](C)O | 6.66 | 8.64 |  |
| CC[C@H](C)[C@H](NC(=O)[C@H](CC(C)C)NC(=O)[C@H](CC(N)=O)NC(=O)[C@@H](NC(=O)[C@H]1CNC(=O)C[C@H](NC(=O)[C@@H](N)Cc2ccc(O)cc2)C(=O)N[C@@H](CO)C(=O)N[C@@H](CCCCN)C(=O)N2CCC[C@H]2C(=O)N[C@H](C)C(=O)N[C@@H](CCCNC(=N)N)C(=O)N[C@@H](Cc2c[nH]cn2)C(=O)N1)[C@@H](C)CC)C(=O)N[C@H](C(=O)N[C@@H](CCCNC(=N)N)C(=O)N[C@@H](CCC(N)=O)C(=O)N[C@@H](CCCNC(=N)N)C(=O)N[C@@H](Cc1ccc(O)cc1)C(=O)O)[C@@H](C)O | < 6.00 | 8.82 |  |
| CC[C@H](C)[C@H](NC(=O)[C@H](CC(C)C)NC(=O)[C@H](CC(N)=O)NC(=O)[C@@H](NC(=O)[C@H]1CNC(=O)CC[C@@H](NC(=O)[C@@H](N)Cc2ccc(O)cc2)C(=O)N[C@@H](CO)C(=O)N[C@@H](CCCCN)C(=O)N2CCC[C@H]2C(=O)N[C@H](C)C(=O)N[C@@H](CCCN=C(N)N)C(=O)N[C@@H](Cc2c[nH]cn2)C(=O)N1)[C@@H](C)CC)C(=O)N[C@H](C(=O)N[C@@H](CCCN=C(N)N)C(=O)N[C@@H](CCC(N)=O)C(=O)N[C@@H](CCCN=C(N)N)C(=O)N[C@@H](Cc1ccc(O)cc1)C(N)=O)[C@@H](C)O | 6.64 | 8.96 |  |
| CC[C@H](C)[C@H](NC(=O)[C@H](Cc1ccc(O)cc1)NC(=O)[C@H](Cc1c[nH]cn1)NC(=O)[C@H](CCCN=C(N)N)NC(=O)[C@H](CC(C)C)NC(=O)[C@H](C)NC(=O)[C@H](CO)NC(=O)[C@H](Cc1ccc(O)cc1)NC(=O)[C@H](Cc1ccc(O)cc1)NC(=O)[C@H](CCCN=C(N)N)NC(=O)[C@H](C)NC(=O)[C@H](CC(C)C)NC(=O)[C@H](CC(=O)O)NC(=O)[C@H](CCC(=O)O)NC(=O)[C@H](C)NC(=O)[C@@H]1CCCN1)C(=O)N[C@@H](CC(N)=O)C(=O)N[C@@H](CC(C)C)C(=O)N[C@H](C(=O)N[C@H](C(=O)N[C@@H](CCCN=C(N)N)C(=O)N[C@@H](CCC(N)=O)C(=O)N[C@@H](CCCN=C(N)N)C(=O)N[C@@H](Cc1ccc(O)cc1)C(=O)O)[C@@H](C)O)[C@@H](C)CC |  | 9.10 |  |
| CC[C@H](C)[C@H](NC(=O)[C@H](Cc1ccc(O)cc1)NC(=O)[C@H](Cc1cnc[nH]1)NC(=O)[C@H](CCCNC(=N)N)NC(=O)CCCCCNC(=O)[C@H](CCCCN)NC(=O)[C@H](CO)NC(=O)[C@@H]1CCCN1C(=O)[C@@H](N)Cc1ccc(O)cc1)C(=O)N[C@@H](CC(N)=O)C(=O)N[C@@H](CC(C)C)C(=O)N[C@H](C(=O)N[C@H](C(=O)N[C@@H](CCCNC(=N)N)C(=O)N[C@@H](CCC(N)=O)C(=O)N[C@@H](CCCNC(=N)N)C(=O)N[C@@H](Cc1ccc(O)cc1)C(=O)O)[C@@H](C)O)[C@@H](C)CC (H-YPSK[Ahx]RHYINLITRQRY-OH) |  | 9.00 | 6.58 |
| H-YPSKPGRHYINLITRQRY-OH |  | 8.51 |  |

More lines, now with the values ahead:

| pKi ([1]; sk-n-mc) | pKi [2] | pKi [1] | Compound |
| --- | --- | --- | --- |
| < 6.00 | 9.52 |  | CC[C@H](C)[C@H](NC(=O)[C@H](CC(C)C)NC(=O)[C@H](CC(N)=O)NC(=O)[C@@H](NC(=O)[C@H]1CNC(=O)CC[C@H](NC(=O)[C@@H](N)Cc2ccc(O)cc2)C(=O)N[C@@H](CO)C(=O)N[C@@H](CCCCN)C(=O)N2CCC[C@H]2C(=O)N[C@H](C)C(=O)N[C@@H](CCCN=C(N)N)C(=O)N[C@@H](Cc2c[nH]cn2)C(=O)N1)[C@@H](C)CC)C(=O)N[C@H](C(=O)N[C@@H](CCCN=C(N)N)C(=O)N[C@@H](CCC(N)=O)C(=O)N[C@@H](CCCN=C(N)N)C(=O)N[C@@H](Cc1ccc(O)cc1)C(N)=O)[C@@H](C)O |
| 6.89 | 9.52 |  | CC[C@H](C)[C@H](NC(=O)[C@H](CC(C)C)NC(=O)[C@H](CC(N)=O)NC(=O)[C@@H](NC(=O)[C@H]1CNC(=O)CC[C@H](NC(=O)[C@@H](N)Cc2ccc(O)cc2)C(=O)N[C@@H](CO)C(=O)N[C@@H](CCCCN)C(=O)N2CCC[C@H]2C(=O)NCC(=O)N[C@@H](CCCN=C(N)N)C(=O)N[C@@H](Cc2c[nH]cn2)C(=O)N1)[C@@H](C)CC)C(=O)N[C@H](C(=O)N[C@@H](CCCN=C(N)N)C(=O)N[C@@H](CCC(N)=O)C(=O)N[C@@H](CCCN=C(N)N)C(=O)N[C@@H](Cc1ccc(O)cc1)C(N)=O)[C@@H](C)O |
| < 6.00 | 9.52 |  | CC[C@H](C)[C@@H]1NC(=O)[C@H](CC(C)C)NC(=O)[C@H](CC(N)=O)NC(=O)[C@@H](NC(=O)[C@H]2CNC(=O)CC[C@H](NC(=O)[C@@H](N)Cc3ccc(O)cc3)C(=O)N[C@@H](CO)C(=O)N[C@@H](CCCCN)C(=O)N3CCC[C@H]3C(=O)N[C@H](C)C(=O)N[C@@H](CCCN=C(N)N)C(=O)N[C@@H](Cc3c[nH]cn3)C(=O)N2)CCCCNC(=O)CC[C@@H](C(=O)N[C@@H](CCCN=C(N)N)C(=O)N[C@@H](CCC(N)=O)C(=O)N[C@@H](CCCN=C(N)N)C(=O)N[C@@H](Cc2ccc(O)cc2)C(N)=O)NC1=O |
|  | 9.05 | 6.54 | CC[C@H](C)[C@H](NC(=O)[C@H](Cc1ccc(O)cc1)NC(=O)[C@H](Cc1cnc[nH]1)NC(=O)[C@H](CCCNC(=N)N)NC(=O)[C@@H](C)NC(=O)[C@@H]1CCCN1C(=O)[C@H](CCCCN)NC(=O)[C@H](CO)NC(=O)[C@@H]1CCCN1C(=O)[C@@H](N)Cc1ccc(O)cc1)C(=O)N[C@@H](CC(N)=O)C(=O)N[C@@H](CC(C)C)C(=O)N[C@H](C(=O)N[C@H](C(=O)N[C@@H](CCCNC(=N)N)C(=O)N[C@@H](CCC(N)=O)C(=O)N[C@@H](CCCNC(=N)N)C(=O)N[C@@H](Cc1ccc(O)cc1)C(=O)O)[C@@H](C)O)[C@@H](C)CC |
|  | 9.30 | < 6.00 | CC[C@H](C)[C@H](NC(=O)[C@H](CC(C)C)NC(=O)[C@H](CC(N)=O)NC(=O)[C@@H](NC(=O)[C@H]1CCCCNC(=O)C[C@H](NC(=O)[C@@H](N)Cc2ccc(O)cc2)C(=O)N[C@@H](CO)C(=O)N[C@@H](CCCCN)C(=O)N2CCC[C@H]2C(=O)N[C@H](C)C(=O)N[C@@H](CCCNC(=N)N)C(=O)N[C@@H](Cc2cnc[nH]2)C(=O)N1)[C@@H](C)CC)C(=O)N[C@H](C(=O)N[C@@H](CCCNC(=N)N)C(=O)N[C@@H](CCC(N)=O)C(=O)N[C@@H](CCCNC(=N)N)C(=O)N[C@@H](Cc1ccc(O)cc1)C(=O)O)[C@@H](C)O |
|  | 9.30 | < 6.00 | CC[C@H](C)[C@@H]1NC(=O)[C@H](CC(C)C)NC(=O)[C@H](CC(N)=O)NC(=O)[C@@H](NC(=O)[C@H](Cc2ccc(O)cc2)NC(=O)[C@H](Cc2cnc[nH]2)NC(=O)[C@H](CCCNC(=N)N)NC(=O)[C@@H](C)NC(=O)[C@@H]2CCCN2C(=O)[C@H](CCCCN)NC(=O)[C@H](CO)NC(=O)[C@@H]2CCCN2C(=O)[C@@H](N)Cc2ccc(O)cc2)CCCCNC(=O)CC[C@@H](C(=O)N[C@@H](CCCNC(=N)N)C(=O)N[C@@H](CCC(N)=O)C(=O)N[C@@H](CCCNC(=N)N)C(=O)N[C@@H](Cc2ccc(O)cc2)C(=O)O)NC1=O |
